Target: Peptidyl-prolyl cis-trans isomerase A (Homo sapiens, UniProt P62937)
Experiment: Surface Plasmon Resonance Assay
Details: pH 7.4; 25 °C
Method: CypA in vitro were determined by employing surface plasmon resonance (SPR) technology.

Peptidyl-prolyl cis-trans isomerase A, sequence (P62937 whole entry): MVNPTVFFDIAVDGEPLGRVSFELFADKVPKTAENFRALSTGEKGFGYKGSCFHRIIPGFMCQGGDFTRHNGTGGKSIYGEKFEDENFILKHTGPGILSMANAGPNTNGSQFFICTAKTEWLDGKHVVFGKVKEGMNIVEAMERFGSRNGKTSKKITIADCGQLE

Row | Kd | IC50 | Structure (SMILES)
1 | 17.2 µM |  | CCOC(=O)[C@@H]1CCCN(Cc2cc(-c3ccc4ccccc4c3)nc3ccccc23)C1 [CypA Inhibitor, 1d]
2 | 3.07 µM |  | CC(C)(C)NC(=O)[C@@H]1Cc2ccccc2CN1Cc1cc(-c2ccc3ccccc3c2)nc2ccccc12 [CypA Inhibitor, 1b]
3 | 38.7 µM | 2.86 µM | Cc1cc(NS(=O)(=O)c2ccc(NC(=O)c3ccc4nc(-c5ccco5)c(-c5ccco5)nc4c3)cc2)no1 [CypA Inhibitor, 4e]
4 | 10.8 µM |  | COC(=O)c1cc(C(=O)Nc2ccc(S(=O)(=O)Nc3onc(C)c3C)cc2)ccc1NCc1ccccc1 [CypA Inhibitor, 3b]
5 | 8.18 µM |  | COC(=O)c1cc(C(=O)Nc2cc(-c3cccc(Cl)c3)nc3ccccc23)ccc1NCc1ccccc1 [CypA Inhibitor, 3a]
6 | 0.0762 µM |  | CC(C)CCOC(=O)Nc1cc(-c2ccc3ccccc3c2)nc2ccccc12 [CypA Inhibitor, 2a]
7 | 27.3 µM |  | Cc1noc(NS(=O)(=O)c2ccc(NC(=O)c3ccc4nc(-c5ccco5)c(-c5ccco5)nc4c3)cc2)c1C [CypA Inhibitor, 4b]
8 | 41 µM | 6.43 µM | Cc1ccnc(NS(=O)(=O)c2ccc(NC(=O)c3ccc4nc(-c5ccco5)c(-c5ccco5)nc4c3)cc2)n1 [CypA Inhibitor, 4c]
9 | 35.3 µM | 0.78 µM | O=C(Nc1ccc(S(=O)(=O)Nc2cnc3ccccc3n2)cc1)c1ccc2nc(-c3ccco3)c(-c3ccco3)nc2c1 [CypA Inhibitor, 4g]
10 | 28.8 µM |  | CCOC(=O)[C@H]1CCCN(C(=O)Nc2cc(-c3cccc(Cl)c3)nc3ccccc23)C1 [CypA Inhibitor, 2b]
11 | 24.3 µM |  | CC(C)(C)NC(=O)[C@@H]1Cc2ccccc2CN1Cc1cc(-c2cccc(Cl)c2)nc2ccccc12 [CypA Inhibitor, 1a]
12 | 0.212 µM |  | c1ccc2cc(-c3cc(CN4CCCCC4)c4ccccc4n3)ccc2c1 [CypA Inhibitor, 1c]
13 | 3.41 µM |  | CCN(CC)C(=O)CNCc1cc(-c2ccc3ccccc3c2)nc2ccccc12 [CypA Inhibitor, 1e]
14 | 30.8 µM |  | Cc1cc(C)nc(NS(=O)(=O)c2ccc(NC(=O)c3ccc4nc(-c5ccco5)c(-c5ccco5)nc4c3)cc2)n1 [CypA Inhibitor, 4d]
15 | 8.19 µM | 0.25 µM | COC(=O)c1cc(NC(=O)c2ccc3nc(-c4ccco4)c(-c4ccco4)nc3c2)ccc1NCc1ccccc1 [CypA Inhibitor, 4a]
16 | 22.8 µM | 0.96 µM | O=C(Nc1ccc(S(=O)(=O)Nc2ncccn2)cc1)c1ccc2nc(-c3ccco3)c(-c3ccco3)nc2c1 [CypA Inhibitor, 4f]

— BindingDB's records for doi:10.1021/cc0501561 (East China Univesity of Science and Technology, 2006)
